Key:
recombinant human MOR = biological target: T1, recombinant human MOR (Homo sapiens, UniProt P35372); test: Calcium mobilization assay, CHO-MOR cells expressing Gαqi5; assay type: cell-based
T1 construct: expressed in transfected cells; gift of Dr. Larry Toll (SRI International); infected with a retrovirus for Gαqi5
Experimental: CHO cells, expressing human opioid receptors and the Gαqi5 protein, and CHODOR, expressing the GαqG66Di5 protein, were maintained in culture medium consisting of Dulbecco minimum essential medium (DMEM) and Ham F-12 (1:1) (50/50) supplemented with 10% fetal calf serum (FCS), L-glutamine (2 mM), geneticin (200 μg/mL; G418), hygromycin B (100 μg/mL) at 37 °C in 5% CO2 humidified air. When confluence was reached (3–4 days), cells were subcultured as required using trypsin/EDTA, and used for experimentation. The different cell lines were seeded at a density of 50,000–40,000 cells/well into black 96-well, clear-bottomed plates. […] After placing both plates (cell culture and compound plate) into the FlexStation II (Molecular Device, Union City, San Jose, CA 94587, USA), fluorescence changes were measured at room temperature. […] Maximum change in fluorescence, expressed in percent of baseline fluorescence, was used to determine agonist response.
In calcium mobilization experiments, data were analyzed by non-linear curve fitting equation, using GraphPad 5.0 software. […] Ligand efficacy was expressed as intrinsic activity (α), calculated as the ratio between the Emax of the ligand and that of the respective standards. Calcium mobilization data were expressed as FIU (fluorescence intensity units) in percent, over the baseline. […]

DOR [1] = test system: DOR; parameters: method as in PMID 20599386; settings: less potent than DPDPE; cited from earlier work
DOR [2] = test system: DOR; parameters: method as in PMID 22100511; settings: 10 nM; cited from earlier work
human-KOR = human-KOR (Homo sapiens, UniProt P41145); test: Calcium mobilization assay, CHO-KOR cells expressing Gαqi5; assay type: cell-based; parameters: expressed in transfected cells; gift of Dr. Larry Toll (SRI International); infected with a retrovirus for Gαqi5; settings: agonist mode; Inactive = inactive at 10 μM; crc incomplete = incomplete concentration response curve at 10 μM; listed as LP1 (1)
human-KOR, sequence (P41145 whole entry): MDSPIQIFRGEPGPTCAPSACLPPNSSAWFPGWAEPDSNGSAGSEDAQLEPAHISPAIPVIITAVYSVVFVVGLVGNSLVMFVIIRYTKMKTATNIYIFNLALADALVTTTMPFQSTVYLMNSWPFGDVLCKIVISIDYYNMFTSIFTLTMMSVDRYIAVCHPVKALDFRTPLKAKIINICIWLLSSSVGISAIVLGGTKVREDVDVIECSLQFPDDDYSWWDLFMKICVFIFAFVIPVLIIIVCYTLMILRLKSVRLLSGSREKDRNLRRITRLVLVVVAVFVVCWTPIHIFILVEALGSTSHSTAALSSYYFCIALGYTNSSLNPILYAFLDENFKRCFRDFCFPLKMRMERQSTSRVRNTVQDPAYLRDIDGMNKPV
Experimental: The pharmacological characterization of LP1 derivatives 2 and 10–16 was performed by calcium mobilization assay (Table 2). This procedure was preliminarily validated through a series of experiments where the effects of DPDPE, dermorphin, and dynorphin A were assessed in CHO cells expressing the human recombinant opioid receptors and Gαqi5 or GαqG66Di5 chimeric proteins.
Chinese hamster ovary (CHO) cells expressing the recombinant human MOR and KOR (CHO^MOR and CHO^KOR) were kindly provided by Dr. Larry Toll (SRI International, Menlo Park, CA, USA), and CHO cells expressing the recombinant human DOR (CHO^DOR) were supplied by Dr. Eva Varga (Department of Medical Pharmacology, The University of Arizona, Tucson, AZ, USA). CHO cells lines permanently coexpressing the opioid receptors and the C-terminally modified Gαqi5 were prepared by infecting the CHO lines described above with a recombinant retrovirus expressing the chimeric α subunit and the hygromycin resistance gene. Similarly, CHO cells lines permanently coexpressing DOR and the C-terminally modified GαqG66Di5 were prepared by infecting the CHO lines described above with a recombinant retrovirus expressing the chimeric α subunit and the hygromycin resistance gene. Polyclonal cell lines were generated using the pantropic retroviral expression system form BD-Clontech, as described previously. Stable lines were selected under hygromycin B (100 μg/mL) and geneticin (600 μg/mL) for 2–3 weeks after the infection.
CHO cells, expressing human opioid receptors and the Gαqi5 protein, and CHODOR, expressing the GαqG66Di5 protein, were maintained in culture medium consisting of Dulbecco minimum essential medium (DMEM) and Ham F-12 (1:1) (50/50) supplemented with 10% fetal calf serum (FCS), L-glutamine (2 mM), geneticin (200 μg/mL; G418), hygromycin B (100 μg/mL) at 37 °C in 5% CO2 humidified air. When confluence was reached (3–4 days), cells were subcultured as required using trypsin/EDTA, and used for experimentation. The different cell lines were seeded at a density of […] into black 96-well, clear-bottomed plates. After 24 h incubation, the cells were loaded with medium supplemented with 2.5 mM probenecid, 3 μM of the calcium sensitive fluorescent dye Fluo-4 AM, and 0.01% pluronic acid, for 30 min at 37 °C. Afterwards, the loading solution was aspirated and 100 μL/well of assay buffer—HBSS supplemented with 20 mM HEPES, 2.5 mM probenecid and 500 μM Brilliant Black (Aldrich, St. Louis, MO, USA)—was added. Serial dilutions of ligands for experimental use were made in HBSS/HEPES (20 mM) buffer (containing 0.005% BSA fraction V). After placing both plates (cell culture and compound plate) into the FlexStation II (Molecular Device, Union City, San Jose, CA 94587, USA), fluorescence changes were measured at room temperature. Online additions were carried out in a volume of 50 μL/well. Antagonists were incubated 15 min before the addition of the agonist. Maximum change in fluorescence, expressed in percent of baseline fluorescence, was used to determine agonist response.
Analysis of the binding data was performed using the Origin 7.5 software (OriginLab Corporation, Northampton, MA, USA). In calcium mobilization experiments, data were analyzed by non-linear curve fitting equation, using GraphPad 5.0 software. […] Ligand efficacy was expressed as intrinsic activity (α), calculated as the ratio between the Emax of the ligand and that of the respective standards. Calcium mobilization data were expressed as FIU (fluorescence intensity units) in percent, over the baseline. Agonist potencies are given as pEC50 (the negative logarithm to base 10 of the molar concentration of an agonist that produces 50% of the maximal possible effect, Emax). Concentration response curves to agonists were fitted with the following equation: Effect = baseline + (Emax − baseline)/(1+10^(LogEC50 − X) ∗ HillSlope) where X is the agonist concentration. […]

T1 sequence (P35372 whole entry): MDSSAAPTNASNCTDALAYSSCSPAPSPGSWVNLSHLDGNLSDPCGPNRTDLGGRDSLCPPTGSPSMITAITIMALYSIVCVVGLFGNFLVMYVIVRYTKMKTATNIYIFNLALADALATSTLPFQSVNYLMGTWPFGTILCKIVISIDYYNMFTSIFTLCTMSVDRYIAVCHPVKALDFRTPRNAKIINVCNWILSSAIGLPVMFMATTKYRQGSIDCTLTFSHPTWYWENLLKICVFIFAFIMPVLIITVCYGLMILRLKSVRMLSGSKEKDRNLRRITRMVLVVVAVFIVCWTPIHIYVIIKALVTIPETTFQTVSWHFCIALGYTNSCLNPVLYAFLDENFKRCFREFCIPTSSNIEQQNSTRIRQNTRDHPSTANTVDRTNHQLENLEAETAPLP

C[C@H]1[C@H]2Cc3ccc(O)cc3[C@]1(C)CCN2CCC(=O)Nc1ccccc1 [LP1, 3-[(2R,6R,11R)-8-hydroxy-6,11-dimethyl-1,4,5,6-tetrahydro-2,6-methano-3-benzazocin-3(2H)-yl]-N-phenylpropanamide, reference compound]
EC50 (recombinant human MOR): 97.7 nM
intrinsic activity (α) at MOR (recombinant human MOR; ratio of Emax of ligand to that of the standard): 0.40 ± 0.020
potency in inhibiting cAMP accumulation relative to DPDPE (fold less potent) (DOR [1]): approximately 85 fold
inhibition of [35S]GTPγS binding (DOR [2]): 30%
KOR pEC50 (CL95%) (human-KOR): crc incomplete ^d
